Structures are written as SMILES. In brackets after ≈: the same amount, converted by molar mass. Like-named read-outs stand apart in the source and are kept apart here. A value given as a limit tells only on which side of the number the result lay.

Holding throughout (format): cell-based, Agrobacterium tumefaciens
The subject of test [1] is A. tumefaciens NT1(pZLR4) traG-lacZ reporter fusion. Description: QSI activity on A. tumefaciens AHL-bioindicator (traG-lacZ β-galactosidase). To be noted: for inhibition at 100 µg/mL: Agrobacterium tumefaciens, read-out: inhibition (%) at 100 µg/ml; for QSI hit in library screening: second screening: compounds at 5 µg/ml, C8-HSL 10 nM, A. tumefaciens biosensor. Here is the method: Two bacterial QS-signal biosensors were used. Chromobacterium violaceum CV026 [41] was grown in Luria-Bertani modified (LBm) medium, in which the NaCl concentration was 5 g/l instead of 10 g/l. Agrobacterium tumefaciens NT1(pZLR4) was grown in AB minimal medium supplemented with mannitol (0.2%). After supplementation with appropriate AHL, each of the QS-biosensors expresses a reporting activity, which is the production of the pigment violacein in C. violaceum CV026 and that of β-galactosidase from the transcriptional fusion traG::lacZ in A. tumefaciens NT1(pZLR4).
When the screening was performed, the chemical library of the Institut de Chimie des Substances Naturelles (ICSN, Gif-sur-Yvette, France) contained more than 3500 synthetic and natural compounds, which were individually dissolved in dimethylsulfoxide (DMSO) at 1mg/ml and stored in 96 microwell plates. A first screening was performed by mixing biosensor CV026 with the AHL hexanoylhomoserine lactone (C6-HSL) at 0.5 µM and the tested compounds at 50 µg/ml. Final volume was adjusted to 100 µl with a synthetic medium (10% LBm and 0.4% sucrose). After 24 hours of incubation at 30°C, the presence or absence of violacein pigment was quoted by visual reading. […] Final volume was adjusted to 100 µl by the addition of AB minimal medium supplemented with mannitol (0.2%) and TY medium (10%). After 4 hours of incubation at 30°C, β-galactosidase activity was measured in A. tumefaciens cultures as previously described. In the two screenings, 4-nitropyridine-N-oxide (4-NPO) was used as a QSI reference. […]

In test [2] the test system is Agrobacterium biosensor cells. Description: Minimal inhibitory concentration (MIC). Conditions: 10^5 CFU/ml, 36 h at 30°C. As for the experimental part: (§1) Aside from the effect of QSI on QS regulation, the toxicity of these compounds was tested on bacterial cells by measuring two parameters: the minimal inhibitory concentration (MIC) and minimal bactericidal concentration (MBC). MIC, which is the lowest concentration of QSI (µg/ml) inhibiting any visible culture after 36 h of incubation at 30°C, was estimated by culturing 10^5 CFU/ml of the Agrobacterium biosensor cells in the presence of different concentrations of the QSI. MBC, which is the lowest concentration of QSI (µg/ml) that results in a 99.9% reduction of the initial bacterial population (10^5 CFU/ml) after 36 h of incubation at 30°C in the presence of different concentrations of QSI, was estimated by plating 100 µL of the Agrobacterium cultures on agar LBm plates. After an incubation of 48 h at 30°C, CFU were counted and the MBC values were calculated.

Test [3] relates to Agrobacterium biosensor cells. The test can be described thus: Minimal bactericidal concentration (MBC). To be noted: Agrobacterium; 99.9% reduction of 10^5 CFU/ml after 36 h at 30°C; read-out: MBC. As for the experimental part: as §1

For orientation: MIC means the lowest concentration found to suppress growth. A word on the MBC: it is the lowest tested concentration that kills the bacteria rather than only halting them. As for `C[C@@H](NC[C@H]1Cc2ccccc2N1)c1cccc2ccccc12` [(R,R)-1248, (R)-N-((R)-indolin-2-ylmethyl)-1-(naphthalen-1-yl)ethanamine], the inhibition at 100 µg/mL in test [1] came to 10%. The MIC in test [2] (Agrobacterium, read-out: MIC) amounted to 100 µg/mL (≈ 331 µM). Moreover, the MBC in test [3] is 100 µg/mL (≈ 331 µM).

As for `C[C@H](NC[C@H]1Cc2ccccc2N1)c1cccc2ccccc12` [(R,S)-1248, (S)-N-((R)-indolin-2-ylmethyl)-1-(naphthalen-1-yl)ethanamine], in test [1], the inhibition at 100 µg/mL was found to be 0%. For the same molecule, the MIC in test [2] (Agrobacterium, read-out: MIC) stood at 100 µg/mL (≈ 331 µM). In addition, the MBC in test [3] came out at 100 µg/mL (≈ 331 µM).

`C[C@@H](NC[C@@H]1Cc2ccccc2N1)c1cccc2ccccc12` [(S,R)-1248, (R)-N-((S)-indolin-2-ylmethyl)-1-(naphthalen-1-yl)ethanamine]: in test [2] (Agrobacterium, read-out: MIC), the MIC is 100 µg/mL (≈ 331 µM). Also, the MBC in test [3] turned out to be 100 µg/mL (≈ 331 µM).

Take `C[C@H](NC[C@@H]1Cc2ccccc2N1)c1cccc2ccccc12` [(S,S)-1248, (S)-N-((S)-indolin-2-ylmethyl)-1-(naphthalen-1-yl)ethanamine]: the MIC in test [2] (Agrobacterium, read-out: MIC) came to 100 µg/mL (≈ 331 µM). The MBC in test [3] is above 100 µg/mL.

With `CCC12CCCN3CCC4(C(=C(C(=O)OC)C1)Nc1ccccc14)C32` (centres unmarked) [Compound 14], in test [1], the inhibition at 100 µg/mL turned out to be 0% and the “QSI hit in library screening” value is on record as “hits”. In addition, the MIC in test [2] (Agrobacterium, read-out: MIC) is above 100 µg/mL. For the same molecule, the MBC in test [3] was above 100 µg/mL.

Regarding `CC1C2CCC3C4CC=C5CC(N)CCC5(C)C4CCC32CN1C.Cl` (centres unmarked) [Compound 283, 2,3,11a-Trimethyl-2,3,3a,4,5,5a,5b,6,8,9,10,11,11a,11b,12,13-hexadecahydro-1H-2-aza-pentaleno[1,6a-a]phenanthren-9-ylamine hydrochloride], the “QSI hit in library screening” value in test [1] is “hits”. In test [2] (Agrobacterium, read-out: MIC), the MIC is above 100 µg/mL. The MBC in test [3] is above 100 µg/mL.

For `C=C[C@H]1CN2CC[C@H]1C[C@H]2[C@H](O)c1ccnc2ccc(OC)cc12` [Compound 937], in test [1], the inhibition at 100 µg/mL came out at 15% and the “QSI hit in library screening” value was “hits”. In addition, the MIC in test [2] (Agrobacterium, read-out: MIC) was above 100 µg/mL. Besides, the MBC in test [3] is above 100 µg/mL.

For `CC(NCC1Cc2ccccc2N1)c1cccc2ccccc12` (centres unmarked) [Compound 1248], the “QSI hit in library screening” value in test [1] is “hits”. Also, the MIC in test [2] (Agrobacterium, read-out: MIC) is above 100 µg/mL. Further, the MBC in test [3] is above 100 µg/mL.

Turning to `CC(C)CCC[C@@H](C)[C@H]1CCC2C3CCC4CC(=O)CC[C@]4(C)C3CC[C@@]21C` (some centres unmarked) [Compound 1868], in test [1], the inhibition at 100 µg/mL came out at 34% and the “QSI hit in library screening” value is on record as “hits”. Besides, the MIC in test [2] is reported as 12,5 µg/ml. For the same molecule, the MIC in test [2] (Agrobacterium, read-out: MIC) was found to be 12.5 µg/mL (≈ 32.3 µM). Besides, in test [3], the MBC is above 100 µg/mL.

Consider `Cc1cn(COCCSc2ccccc2)c(=O)[nH]c1=O` [Compound 1949, 5-Methyl-1-(2-phenylsulfanyl-ethoxymethyl)-1H-pyrimidine-2,4-dione], for which, in test [1], the inhibition at 100 µg/mL is 38% and the “QSI hit in library screening” value was “hits”. For the same molecule, the MIC in test [2] (Agrobacterium, read-out: MIC) was above 100 µg/mL. Besides, in test [3], the MBC was above 100 µg/mL.

For the molecule `CN1CCc2c([nH]c3ccccc23)C1` [Compound 3492], the “QSI hit in library screening” value in test [1] is “hits”. For the same molecule, the minimal inhibitory concentration (MIC) in test [2] (Agrobacterium, read-out: MIC) was above 100 µg/mL. The MBC in test [3] is above 100 µg/mL.

As for `CC/C=C\C[C@H]1C(=O)CC[C@@H]1CC(=O)O` [Jasmonic acid, jasmonic acid, reference compound], the minimal inhibitory concentration (MIC) in test [2] (Agrobacterium, read-out: MIC) is above 100 µg/mL. In addition, the MBC in test [3] is above 100 µg/mL.

The record behind these values is article PMC3871529, “At a Supra-Physiological Concentration, Human Sexual Hormones Act as Quorum-Sensing Inhibitors” (PLoS ONE, 2013).
